Tested on: LS174T human colon adenocarcinoma
Test: PET imaging of human colon cancer tissue in nude mice
Format: in vivo
Details: female athymic nu/nu mice, s.c. LS174T xenograft, 20 μCi i.v.
Protocol: A humanized MN-14 IgG antibody is prepared as described in U.S. Pat. No. 6,676,924. ^18F-labeled bisulfite addition complex is prepared as described in Example 8 and is linked to the humanized MN-14 IgG by reductive amination with sodium cyanoborohydride using standard techniques (see, e.g., Gray, 1978, Meth. Enzymol. 50:155-160.). Alternatively, an antibody or antibody fragment is directly labeled with [^18F]Fluorobenzaldehyde in the presence of hydroxylamine, thiosemicarbazide or hydrazine. Gel-permeation column chromatography is used to separated the 4-[^18F]Fluorobenzaldehyde/hMN-14 immunoconjugate from unconjugated 4-[^18F]Fluorobenzaldehyde bisulfite addition complex. The 4-[^18F]Fluorobenzaldehyde/hMN-14 immunoconjugate is used to localize human colon cancer tissue in nude mice. At 4-5 weeks female athymic mice (nu/nu, Harlan, Indianapolis, Ind.) are injected s.c. with 0.2 ml of a 10% suspension of LS174T human colon adenocarcinoma prepared from a xenograft serially propagated in an athymic mouse (Sharkey et al., Cancer Res., 50: 828-34 (1990)). After waiting 2 weeks for tumor development, the mice are injected i.v. with 20 μCi of 4-[^18F]Fluorobenzaldehyde/hMN-14 immunoconjugate. Tumor tissue is imaged by PET imaging, using standard ^18F detection methods.

4-[^18F]Fluorobenzaldehyde/hMN-14 immunoconjugate
tumor detection by PET imaging (F-18 distribution): detected as hot spots of F-18 distribution against a low-level background of F-18

Reference: patent US7842279B2, “F-18 peptides for pre targeted positron emission tomography imaging” (Immunomedics, Inc., priority 2005, dated 2010)
